Experimental data: the kinase profiling compilation of Christmann-Franck et al. (2016)

Legend:
Test in all cases: radiometric filter-binding kinase assay, Kinase HotSpot
Settings in all cases: compound 0.5 µM; ATP 10 µM
CAMK4 (human) = CAMK4 (human) (UniProt Q16566)
MAPK3 (human) = MAPK3 (human) (UniProt P27361)
WNK3 (human) = WNK3 (human) (UniProt Q9BYP7)
MELK (human) = MELK (human) (UniProt Q14680)
CDK5 CDK5R1 p25 (human) = CDK5 CDK5R1 p25 (human) (UniProt Q00535+Q15078)
PAK2 (human) = PAK2 (human) (UniProt Q13177)
CLK4 (human) = CLK4 (human) (UniProt Q9HAZ1)
DAPK2 (human) = DAPK2 (human) (UniProt Q9UIK4)
Chain of DAPK2 (human) (Q9UIK4 whole entry, looked up): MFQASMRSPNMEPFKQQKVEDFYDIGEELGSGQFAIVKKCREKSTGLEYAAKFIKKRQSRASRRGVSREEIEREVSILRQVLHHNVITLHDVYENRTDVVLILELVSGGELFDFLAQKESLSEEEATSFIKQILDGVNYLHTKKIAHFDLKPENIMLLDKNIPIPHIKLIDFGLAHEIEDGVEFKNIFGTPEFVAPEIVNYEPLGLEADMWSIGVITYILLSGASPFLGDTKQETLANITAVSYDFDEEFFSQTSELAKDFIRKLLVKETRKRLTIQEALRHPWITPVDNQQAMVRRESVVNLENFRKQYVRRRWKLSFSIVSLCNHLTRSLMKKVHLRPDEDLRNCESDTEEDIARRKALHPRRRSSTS

PRKCI (human) = PRKCI (human) (UniProt P41743)
TAOK3 (human) = TAOK3 (human) (UniProt Q9H2K8)
Chain of TAOK3 (human) (Q9H2K8 whole entry, looked up): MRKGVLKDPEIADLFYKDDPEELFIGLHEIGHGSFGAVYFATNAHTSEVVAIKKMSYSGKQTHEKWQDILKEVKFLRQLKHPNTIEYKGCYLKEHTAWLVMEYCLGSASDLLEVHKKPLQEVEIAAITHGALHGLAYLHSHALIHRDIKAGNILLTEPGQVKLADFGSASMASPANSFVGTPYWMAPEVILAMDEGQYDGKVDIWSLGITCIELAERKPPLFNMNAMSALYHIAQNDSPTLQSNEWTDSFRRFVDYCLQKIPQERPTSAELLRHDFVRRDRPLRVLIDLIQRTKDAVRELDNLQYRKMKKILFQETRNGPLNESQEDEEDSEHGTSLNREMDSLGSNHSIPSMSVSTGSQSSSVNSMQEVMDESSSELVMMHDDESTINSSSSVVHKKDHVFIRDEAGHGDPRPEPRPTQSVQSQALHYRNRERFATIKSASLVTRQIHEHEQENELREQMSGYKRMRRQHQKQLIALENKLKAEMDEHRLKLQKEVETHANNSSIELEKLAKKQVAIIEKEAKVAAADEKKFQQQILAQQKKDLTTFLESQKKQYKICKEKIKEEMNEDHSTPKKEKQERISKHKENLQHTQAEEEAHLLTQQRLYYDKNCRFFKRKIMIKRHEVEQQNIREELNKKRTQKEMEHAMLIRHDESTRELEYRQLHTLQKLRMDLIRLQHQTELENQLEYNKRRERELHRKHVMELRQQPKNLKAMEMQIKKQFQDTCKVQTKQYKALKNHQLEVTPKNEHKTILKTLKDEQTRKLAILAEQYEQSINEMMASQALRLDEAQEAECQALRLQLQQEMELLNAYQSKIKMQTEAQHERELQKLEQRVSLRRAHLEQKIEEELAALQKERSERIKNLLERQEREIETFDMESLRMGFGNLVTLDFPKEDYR

LRRK2 (human) = LRRK2 (human) (UniProt Q5S007)
PRKX (human) = PRKX (human) (UniProt P51817)
NEK1 (human) = NEK1 (human) (UniProt Q96PY6)
PRKCH (human) = PRKCH (human) (UniProt P24723)
PKN2 (human) = PKN2 (human) (UniProt Q16513)
Chain of PKN2 (human) (Q16513 whole entry, looked up): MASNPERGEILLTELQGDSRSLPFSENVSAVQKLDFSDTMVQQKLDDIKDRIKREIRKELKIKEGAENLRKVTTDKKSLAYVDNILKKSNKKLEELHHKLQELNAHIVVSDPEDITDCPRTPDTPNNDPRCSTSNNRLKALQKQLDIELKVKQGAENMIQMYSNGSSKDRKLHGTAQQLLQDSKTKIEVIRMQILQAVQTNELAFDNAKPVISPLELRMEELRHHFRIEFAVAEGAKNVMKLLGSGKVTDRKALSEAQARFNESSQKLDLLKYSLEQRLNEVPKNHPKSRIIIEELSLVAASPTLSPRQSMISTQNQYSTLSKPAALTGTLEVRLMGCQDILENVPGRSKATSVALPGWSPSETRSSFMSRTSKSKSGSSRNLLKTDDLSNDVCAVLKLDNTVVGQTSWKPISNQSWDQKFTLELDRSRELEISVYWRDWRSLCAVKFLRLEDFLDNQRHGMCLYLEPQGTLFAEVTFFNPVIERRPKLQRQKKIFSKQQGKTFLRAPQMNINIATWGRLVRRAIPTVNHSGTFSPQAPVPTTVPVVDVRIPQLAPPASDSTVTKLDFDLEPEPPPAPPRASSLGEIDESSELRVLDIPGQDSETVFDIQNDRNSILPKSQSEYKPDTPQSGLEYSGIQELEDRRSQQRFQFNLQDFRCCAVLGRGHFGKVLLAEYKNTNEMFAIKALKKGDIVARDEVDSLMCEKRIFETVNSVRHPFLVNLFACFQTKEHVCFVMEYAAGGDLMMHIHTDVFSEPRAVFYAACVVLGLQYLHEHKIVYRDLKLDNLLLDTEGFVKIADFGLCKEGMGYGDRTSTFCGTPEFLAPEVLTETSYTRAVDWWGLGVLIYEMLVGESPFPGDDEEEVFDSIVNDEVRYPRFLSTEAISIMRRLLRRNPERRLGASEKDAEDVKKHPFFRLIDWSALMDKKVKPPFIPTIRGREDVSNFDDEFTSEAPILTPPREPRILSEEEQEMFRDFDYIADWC

FRK (human) = FRK (human) (UniProt P42685)
PRKACA (human) = PRKACA (human) (UniProt P17612)
DSTYK (human) = DSTYK (human) (UniProt Q6XUX3)
HIPK3 (human) = HIPK3 (human) (UniProt Q9H422)
DYRK4 (human) = DYRK4 (human) (UniProt Q9NR20)
FGR (human) = FGR (human) (UniProt P09769)
MAPK14 (human) = MAPK14 (human) (UniProt Q16539)
GRK5 (human) = GRK5 (human) (UniProt P34947)
Chain of GRK5 (human) (P34947 whole entry, looked up): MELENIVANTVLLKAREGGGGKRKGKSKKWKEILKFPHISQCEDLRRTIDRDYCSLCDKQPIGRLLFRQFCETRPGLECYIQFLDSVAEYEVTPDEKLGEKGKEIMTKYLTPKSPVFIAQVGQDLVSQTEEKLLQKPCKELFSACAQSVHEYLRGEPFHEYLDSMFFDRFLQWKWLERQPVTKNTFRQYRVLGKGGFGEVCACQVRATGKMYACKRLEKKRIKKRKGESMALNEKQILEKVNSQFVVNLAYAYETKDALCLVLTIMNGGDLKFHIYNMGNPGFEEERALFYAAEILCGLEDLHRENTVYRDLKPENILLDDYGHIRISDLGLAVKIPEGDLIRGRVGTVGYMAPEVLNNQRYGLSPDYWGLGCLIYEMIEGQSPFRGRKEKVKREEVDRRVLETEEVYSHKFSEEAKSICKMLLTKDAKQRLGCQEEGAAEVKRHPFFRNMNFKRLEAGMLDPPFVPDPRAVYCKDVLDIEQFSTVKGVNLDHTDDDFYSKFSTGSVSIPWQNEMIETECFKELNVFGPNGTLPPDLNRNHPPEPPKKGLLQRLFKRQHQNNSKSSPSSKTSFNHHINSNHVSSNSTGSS

CDK1 CCNA2 (human) = CDK1 CCNA2 (human) (UniProt P06493+P20248)
SGK2 (human) = SGK2 (human) (UniProt Q9HBY8)
Chain of SGK2 (human) (Q9HBY8 whole entry, looked up): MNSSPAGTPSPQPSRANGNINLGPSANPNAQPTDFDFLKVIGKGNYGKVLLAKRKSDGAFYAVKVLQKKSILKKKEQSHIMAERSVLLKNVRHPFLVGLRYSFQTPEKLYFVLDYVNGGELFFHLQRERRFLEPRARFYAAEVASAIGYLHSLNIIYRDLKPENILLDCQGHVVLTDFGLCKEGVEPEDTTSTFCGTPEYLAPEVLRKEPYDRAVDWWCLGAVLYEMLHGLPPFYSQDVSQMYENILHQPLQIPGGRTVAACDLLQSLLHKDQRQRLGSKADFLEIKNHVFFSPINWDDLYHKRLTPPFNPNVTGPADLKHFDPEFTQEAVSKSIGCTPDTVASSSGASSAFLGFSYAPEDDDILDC

FLT3 (human) = FLT3 (human) (UniProt P36888)
Chain of FLT3 (human) (P36888 whole entry, looked up): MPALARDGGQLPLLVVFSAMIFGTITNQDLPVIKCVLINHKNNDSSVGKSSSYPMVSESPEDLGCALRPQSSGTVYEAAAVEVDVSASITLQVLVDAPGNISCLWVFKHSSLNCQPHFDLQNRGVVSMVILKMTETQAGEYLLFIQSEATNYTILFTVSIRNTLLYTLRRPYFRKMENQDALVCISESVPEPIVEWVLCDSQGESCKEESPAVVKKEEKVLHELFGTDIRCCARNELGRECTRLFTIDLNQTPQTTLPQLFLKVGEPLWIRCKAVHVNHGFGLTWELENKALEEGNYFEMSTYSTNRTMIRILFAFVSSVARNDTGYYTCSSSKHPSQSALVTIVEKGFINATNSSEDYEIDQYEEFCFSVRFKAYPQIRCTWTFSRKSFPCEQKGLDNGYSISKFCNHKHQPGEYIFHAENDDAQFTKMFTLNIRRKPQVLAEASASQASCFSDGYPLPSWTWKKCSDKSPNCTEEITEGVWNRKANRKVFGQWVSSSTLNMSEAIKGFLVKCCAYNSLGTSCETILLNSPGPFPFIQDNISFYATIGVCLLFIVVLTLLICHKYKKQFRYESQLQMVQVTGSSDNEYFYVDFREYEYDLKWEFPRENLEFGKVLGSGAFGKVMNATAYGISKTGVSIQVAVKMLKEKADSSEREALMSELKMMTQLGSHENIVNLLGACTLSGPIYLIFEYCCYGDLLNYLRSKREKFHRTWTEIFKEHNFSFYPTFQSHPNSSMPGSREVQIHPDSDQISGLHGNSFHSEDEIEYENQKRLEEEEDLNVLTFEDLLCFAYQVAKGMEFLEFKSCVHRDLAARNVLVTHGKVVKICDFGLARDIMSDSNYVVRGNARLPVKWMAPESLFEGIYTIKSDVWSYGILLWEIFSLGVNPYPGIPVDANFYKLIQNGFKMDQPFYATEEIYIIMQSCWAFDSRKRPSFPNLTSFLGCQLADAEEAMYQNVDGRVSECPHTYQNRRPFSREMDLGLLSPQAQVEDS

PRKCE (human) = PRKCE (human) (UniProt Q02156)
NTRK2 (human) = NTRK2 (human) (UniProt Q16620)
GSK3A (human) = GSK3A (human) (UniProt P49840)
CSNK1G2 (human) = CSNK1G2 (human) (UniProt P78368)
MYLK2 (human) = MYLK2 (human) (UniProt Q9H1R3)
MARK1 (human) = MARK1 (human) (UniProt Q9P0L2)
RPS6KA2 KD1 KD2 (human) = RPS6KA2 KD1 KD2 (human) (UniProt Q15349)
CHEK2 (human) = CHEK2 (human) (UniProt O96017)
FGFR1 (human) = FGFR1 (human) (UniProt P11362)
MAPKAPK3 (human) = MAPKAPK3 (human) (UniProt Q16644)
PNCK (human) = PNCK (human) (UniProt Q6P2M8)
Chain of PNCK (human) (Q6P2M8 whole entry, looked up): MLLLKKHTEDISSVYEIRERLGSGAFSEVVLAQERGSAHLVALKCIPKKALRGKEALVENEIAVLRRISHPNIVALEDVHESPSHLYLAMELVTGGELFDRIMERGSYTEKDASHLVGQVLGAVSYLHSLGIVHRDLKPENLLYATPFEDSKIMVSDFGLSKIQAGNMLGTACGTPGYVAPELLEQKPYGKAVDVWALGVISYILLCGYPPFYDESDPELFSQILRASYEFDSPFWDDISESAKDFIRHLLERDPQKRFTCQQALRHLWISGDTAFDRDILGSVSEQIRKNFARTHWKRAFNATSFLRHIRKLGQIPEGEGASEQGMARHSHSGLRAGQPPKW

PASK (human) = PASK (human) (UniProt Q96RG2)
ALK (human) = ALK (human) (UniProt Q9UM73)
EPHA1 (human) = EPHA1 (human) (UniProt P21709)
FGFR4 (human) = FGFR4 (human) (UniProt P22455)
CAMKK1 (human) = CAMKK1 (human) (UniProt Q8N5S9)

Chain of MAPK3 (human) (P27361 whole entry, looked up): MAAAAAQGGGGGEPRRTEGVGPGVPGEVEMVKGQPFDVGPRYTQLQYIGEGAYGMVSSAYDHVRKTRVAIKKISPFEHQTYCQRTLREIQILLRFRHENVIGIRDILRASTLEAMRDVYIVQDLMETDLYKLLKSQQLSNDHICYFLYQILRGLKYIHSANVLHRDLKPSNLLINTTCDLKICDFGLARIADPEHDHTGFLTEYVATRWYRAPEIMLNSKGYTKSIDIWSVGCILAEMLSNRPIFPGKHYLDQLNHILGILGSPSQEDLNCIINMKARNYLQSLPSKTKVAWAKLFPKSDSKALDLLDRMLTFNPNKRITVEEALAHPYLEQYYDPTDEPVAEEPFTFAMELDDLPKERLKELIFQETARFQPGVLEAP

**Q.** Which results are given for O=C(Nc1ccc(Cl)cc1)c1ccccc1NCc1ccncc1?
**A.** residual activity (CAMK4 (human)): 101%; residual activity (MAPK3 (human)): 102%; residual activity (WNK3 (human)): 92.9%; residual activity (MELK (human)): 92.3%; residual activity (CDK5 CDK5R1 p25 (human)): 84.9%; residual activity (PAK2 (human)): 91%; residual activity (CLK4 (human)): 107%; residual activity (DAPK2 (human)): 98.4%; residual activity (PRKCI (human)): 98.7%; residual activity (TAOK3 (human)): 94.1%; residual activity (LRRK2 (human)): 98.7%; residual activity (PRKX (human)): 90.5%; residual activity (NEK1 (human)): 96%; residual activity (PRKCH (human)): 96.2%; residual activity (PKN2 (human)): 93.2%; residual activity (FRK (human)): 62.8%; residual activity (PRKACA (human)): 97.1%; residual activity (DSTYK (human)): 94.7%; residual activity (HIPK3 (human)): 98.7%; residual activity (DYRK4 (human)): 104%; residual activity (FGR (human)): 83.8%; residual activity (MAPK14 (human)): 128%; residual activity (GRK5 (human)): 97.3%; residual activity (CDK1 CCNA2 (human)): 91.8%; residual activity (SGK2 (human)): 103%; residual activity (FLT3 (human)): 91.5%; residual activity (PRKCE (human)): 97%; residual activity (NTRK2 (human)): 102%; residual activity (GSK3A (human)): 80.1%; residual activity (CSNK1G2 (human)): 88.3%; residual activity (MYLK2 (human)): 99.5%; residual activity (MARK1 (human)): 94.7%; residual activity (RPS6KA2 KD1 KD2 (human)): 94.1%; residual activity (CHEK2 (human)): 94.5%; residual activity (FGFR1 (human)): 83.7%; residual activity (MAPKAPK3 (human)): 91.4%; residual activity (PNCK (human)): 94.8%; residual activity (PASK (human)): 97.1%; residual activity (ALK (human)): 103%; residual activity (EPHA1 (human)): 97%; residual activity (FGFR4 (human)): 84.1%; residual activity (CAMKK1 (human)): 98.5%

**Q.** Which residual activity (CAMK4 (human)) does the source give for Nc1nc(Nc2ccc(S(N)(=O)=O)cc2)nn1C(=S)Nc1c(F)cccc1F here?
**A.** 98.8%

**Q.** What about the residual activity (MAPK3 (human)) of the same compound?
**A.** 78.9%

**Q.** And the residual activity (WNK3 (human))?
**A.** 82.2%

**Q.** And the residual activity (MELK (human))?
**A.** 32.7%

**Q.** What about the residual activity (CDK5 CDK5R1 p25 (human)) of the same compound?
**A.** 0.156%

**Q.** And the residual activity (PAK2 (human))?
**A.** 26.4%

**Q.** What about the residual activity (CLK4 (human)) of the same compound?
**A.** 1.92%

**Q.** What about the residual activity (DAPK2 (human)) of the same compound?
**A.** 83%

**Q.** And the residual activity (PRKCI (human))?
**A.** 78.9%

**Q.** And the residual activity (TAOK3 (human))?
**A.** 10%

**Q.** What about the residual activity (LRRK2 (human)) of the same compound?
**A.** 1.33%

**Q.** What about the residual activity (PRKX (human)) of the same compound?
**A.** 76.3%

**Q.** What about the residual activity (NEK1 (human)) of the same compound?
**A.** 6.11%

**Q.** And the residual activity (PRKCH (human))?
**A.** 45.7%

**Q.** What about the residual activity (PKN2 (human)) of the same compound?
**A.** 19.1%

**Q.** What about the residual activity (FRK (human)) of the same compound?
**A.** 70.6%

**Q.** What about the residual activity (PRKACA (human)) of the same compound?
**A.** 78.2%

**Q.** And the residual activity (DSTYK (human))?
**A.** 17.8%

**Q.** What about the residual activity (HIPK3 (human)) of the same compound?
**A.** 78.2%

**Q.** And the residual activity (DYRK4 (human))?
**A.** 96.5%

**Q.** And the residual activity (FGR (human))?
**A.** 17.1%

**Q.** What about the residual activity (MAPK14 (human)) of the same compound?
**A.** 95.4%

**Q.** What about the residual activity (GRK5 (human)) of the same compound?
**A.** 75.6%

**Q.** What about the residual activity (CDK1 CCNA2 (human)) of the same compound?
**A.** -0.154%

**Q.** And the residual activity (SGK2 (human))?
**A.** 42%

**Q.** What about the residual activity (FLT3 (human)) of the same compound?
**A.** 1.07%

**Q.** What about the residual activity (PRKCE (human)) of the same compound?
**A.** 11.5%

**Q.** And the residual activity (NTRK2 (human))?
**A.** 11.8%

**Q.** And the residual activity (GSK3A (human))?
**A.** 6.3%

**Q.** And the residual activity (CSNK1G2 (human))?
**A.** 14.8%

**Q.** What about the residual activity (MYLK2 (human)) of the same compound?
**A.** 66.6%

**Q.** What about the residual activity (MARK1 (human)) of the same compound?
**A.** 2.68%

**Q.** And the residual activity (RPS6KA2 KD1 KD2 (human))?
**A.** 2.08%

**Q.** What about the residual activity (CHEK2 (human)) of the same compound?
**A.** 1.96%

**Q.** And the residual activity (FGFR1 (human))?
**A.** 6.59%

**Q.** And the residual activity (MAPKAPK3 (human))?
**A.** 89.6%

**Q.** What about the residual activity (PNCK (human)) of the same compound?
**A.** 89.1%

**Q.** And the residual activity (PASK (human))?
**A.** 91.8%

**Q.** What about the residual activity (ALK (human)) of the same compound?
**A.** 16.7%

**Q.** What about the residual activity (EPHA1 (human)) of the same compound?
**A.** 37.4%

**Q.** What about the residual activity (FGFR4 (human)) of the same compound?
**A.** 32.2%

**Q.** What about the residual activity (CAMKK1 (human)) of the same compound?
**A.** 36%

**Q.** What does the source list for Clc1ccc(Nc2nnc(Cc3ccncc3)c3ccccc23)cc1?
**A.** residual activity (CAMK4 (human)): 93.4%; residual activity (MAPK3 (human)): 94.7%; residual activity (WNK3 (human)): 99.1%; residual activity (MELK (human)): 83.7%; residual activity (CDK5 CDK5R1 p25 (human)): 91.3%; residual activity (PAK2 (human)): 101%; residual activity (CLK4 (human)): 108%; residual activity (DAPK2 (human)): 91.7%; residual activity (PRKCI (human)): 94.2%; residual activity (TAOK3 (human)): 99.9%; residual activity (LRRK2 (human)): 74.8%; residual activity (PRKX (human)): 152%; residual activity (NEK1 (human)): 75.3%; residual activity (PRKCH (human)): 105%; residual activity (PKN2 (human)): 99.9%; residual activity (FRK (human)): 95.4%; residual activity (PRKACA (human)): 98.1%; residual activity (DSTYK (human)): 96.5%; residual activity (HIPK3 (human)): 96.5%; residual activity (DYRK4 (human)): 97.5%; residual activity (FGR (human)): 96.8%; residual activity (MAPK14 (human)): 98.2%; residual activity (GRK5 (human)): 110%; residual activity (CDK1 CCNA2 (human)): 105%; residual activity (SGK2 (human)): 104%; residual activity (FLT3 (human)): 92%; residual activity (PRKCE (human)): 100%; residual activity (NTRK2 (human)): 102%; residual activity (GSK3A (human)): 103%; residual activity (CSNK1G2 (human)): 98.2%; residual activity (MYLK2 (human)): 103%; residual activity (MARK1 (human)): 124%; residual activity (RPS6KA2 KD1 KD2 (human)): 97.5%; residual activity (CHEK2 (human)): 98.5%; residual activity (FGFR1 (human)): 97.2%; residual activity (MAPKAPK3 (human)): 98.9%; residual activity (PNCK (human)): 103%; residual activity (PASK (human)): 101%; residual activity (ALK (human)): 102%; residual activity (EPHA1 (human)): 96%; residual activity (FGFR4 (human)): 95.8%; residual activity (CAMKK1 (human)): 97.2%
